Reference: PubChem BioAssay AID1963976 (Molecular Pharmacology Branch, DTP, NCI, 2024)

Tested on: 435261-313-R-J1-PDC tumor spheroid viability
Assay: Anticancer human tumor 435261-313-R-J1-PDC patient-derived colon adenocarcinoma cell line growth inhibition [PI3K]
Conditions: spheroids with HUVEC and MSC; for IC50: curve of first compound; for viability, T/C: stronger effect = lower value
How it was run: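 Three cell types, namely tumor cells, endothelial cells and mesenchymal stem cells, formed each spheroid. Combinations with four PI3K inhibitors were screened at clinically achievable concentrations decreasing by half-log, and spheroid viability was recorded.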

[1] = second compound 0.0316 µM, first compound 0.0316 µM
[2] = second compound 0.0316 µM, first compound 0.1 µM
[3] = second compound 0.0316 µM, first compound 0.316 µM
[4] = second compound 0.0316 µM, first compound 1 µM
[5] = second compound 0.0316 µM, first compound 3.16 µM
[6] = second compound 0.0316 µM, first compound 10 µM
[7] = second compound 0.1 µM, first compound 0.0316 µM
[8] = second compound 0.1 µM, first compound 0.1 µM
[9] = second compound 0.1 µM, first compound 0.316 µM
[10] = second compound 0.1 µM, first compound 1 µM
[11] = second compound 0.1 µM, first compound 3.16 µM
[12] = second compound 0.1 µM, first compound 10 µM
[13] = second compound 0.316 µM, first compound 0.0316 µM
[14] = second compound 0.316 µM, first compound 0.1 µM
[15] = second compound 0.316 µM, first compound 0.316 µM
[16] = second compound 0.316 µM, first compound 1 µM
[17] = second compound 0.316 µM, first compound 3.16 µM
[18] = second compound 0.316 µM, first compound 10 µM
[19] = second compound 1 µM, first compound 0.0316 µM
[20] = second compound 1 µM, first compound 0.1 µM
[21] = second compound 1 µM, first compound 0.316 µM
[22] = second compound 1 µM, first compound 1 µM
[23] = second compound 1 µM, first compound 3.16 µM
[24] = second compound 1 µM, first compound 10 µM
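Also: spheroids exposed to compounds for 7 days.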

Cn1ncc(Cl)c1-c1cc(C(=O)NC(CN)Cc2cccc(F)c2)sc1Cl (centres undefined) + CC(Nc1ccc2c(c1)OCCn1cc(N3C(=O)OCC3C(F)F)nc1-2)C(N)=O
IC50 (second compound 0.00316 µM): 567 nM
IC50 (second compound 0.01 µM): 447 nM
IC50 (second compound 0.0316 µM): 225 nM
IC50 (second compound 0.1 µM): 31.9 nM
IC50 (second compound 0.316 µM): < 31.6 nM
IC50 (second compound 1 µM): < 31.6 nM
viability, T/C (second compound 0.00316 µM, first compound 0.0316 µM): 75.2%
viability, T/C (second compound 0.00316 µM, first compound 0.1 µM): 84.9%
viability, T/C (second compound 0.00316 µM, first compound 0.316 µM): 67.3%
viability, T/C (second compound 0.00316 µM, first compound 1 µM): 31.6%
viability, T/C (second compound 0.00316 µM, first compound 3.16 µM): 18.7%
viability, T/C (second compound 0.00316 µM, first compound 10 µM): 7.28%
viability, T/C (second compound 0.01 µM, first compound 0.0316 µM): 67.9%
viability, T/C (second compound 0.01 µM, first compound 0.1 µM): 92.8%
viability, T/C (second compound 0.01 µM, first compound 0.316 µM): 51.9%
viability, T/C (second compound 0.01 µM, first compound 1 µM): 31.2%
viability, T/C (second compound 0.01 µM, first compound 3.16 µM): 19.1%
viability, T/C (second compound 0.01 µM, first compound 10 µM): 6.44%
viability, T/C [1]: 67.8%
viability, T/C [2]: 91.3%
viability, T/C [3]: 37.5%
viability, T/C [4]: 25.3%
viability, T/C [5]: 17.2%
viability, T/C [6]: 5.79%
viability, T/C [7]: 50.8%
viability, T/C [8]: 38%
viability, T/C [9]: 21.1%
viability, T/C [10]: 19.4%
viability, T/C [11]: 15.4%
viability, T/C [12]: 5.16%
viability, T/C [13]: 20.9%
viability, T/C [14]: 20.1%
viability, T/C [15]: 14%
viability, T/C [16]: 16.5%
viability, T/C [17]: 13%
viability, T/C [18]: 4.44%
viability, T/C [19]: 18.2%
viability, T/C [20]: 13.5%
viability, T/C [21]: 15.7%
viability, T/C [22]: 17.2%
viability, T/C [23]: 11.4%
viability, T/C [24]: 2.55%

CC(Cn1ccc(-c2ccc(C#N)c(Cl)c2)n1)NC(=O)c1cc(C(C)O)[nH]n1 (centres undefined) + CC(Nc1ncnc2nc[nH]c12)c1cc2cccc(Cl)c2c(=O)n1-c1ccccc1
IC50 (second compound 0.0316 µM): > 10000 nM
IC50 (second compound 0.1 µM): > 10000 nM
IC50 (second compound 0.316 µM): > 10000 nM
IC50 (second compound 1 µM): > 10000 nM
IC50 (second compound 3.16 µM): > 10000 nM
IC50 (second compound 10 µM): > 10000 nM
viability, T/C [1]: 101%
viability, T/C [2]: 96.2%
viability, T/C [3]: 107%
viability, T/C [4]: 75.8%
viability, T/C [5]: 101%
viability, T/C [6]: 100%
viability, T/C [7]: 105%
viability, T/C [8]: 95.9%
viability, T/C [9]: 90.9%
viability, T/C [10]: 103%
viability, T/C [11]: 115%
viability, T/C [12]: 76.1%
viability, T/C [13]: 82.7%
viability, T/C [14]: 90.4%
viability, T/C [15]: 90.5%
viability, T/C [16]: 80.5%
viability, T/C [17]: 103%
viability, T/C [18]: 81.6%
viability, T/C [19]: 81.1%
viability, T/C [20]: 99.1%
viability, T/C [21]: 70.9%
viability, T/C [22]: 85.9%
viability, T/C [23]: 73.5%
viability, T/C [24]: 76.6%
viability, T/C (second compound 3.16 µM, first compound 0.0316 µM): 77.8%
viability, T/C (second compound 3.16 µM, first compound 0.1 µM): 58.4%
viability, T/C (second compound 3.16 µM, first compound 0.316 µM): 77.2%
viability, T/C (second compound 3.16 µM, first compound 1 µM): 85.5%
viability, T/C (second compound 3.16 µM, first compound 3.16 µM): 65.1%
viability, T/C (second compound 3.16 µM, first compound 10 µM): 62.1%
viability, T/C (second compound 10 µM, first compound 0.0316 µM): 58.5%
viability, T/C (second compound 10 µM, first compound 0.1 µM): 41.7%
viability, T/C (second compound 10 µM, first compound 0.316 µM): 48.5%
viability, T/C (second compound 10 µM, first compound 1 µM): 74.7%
viability, T/C (second compound 10 µM, first compound 3.16 µM): 72.4%
viability, T/C (second compound 10 µM, first compound 10 µM): 42%
